From patent publication US8221733B2, “Virucidal disinfectant” (priority 2002, dated 2012)
Where two headings read alike, the source gives them in different places.

Test system: poliovirus type 1 (Mahoney strain)
Format: cell-based
Settings: 0.7% strength formaldehyde

Compound: C=O [formaldehyde]
- virus concentration (exposure time 5 min): 1.05e+06 mL⁻¹
- virus concentration (exposure time 15 min): 1000 mL⁻¹
- virus concentration (exposure time 60 min): ≤ 500 mL⁻¹
